US8586569B2, “Betulonic and betulinic acid derivatives” (priority 2006, dated 2013)

Tested on: lymphocytes of patients suffering from chronic lymphoid leukaemia (human leukaemia cells)
Assay: Sensibility of chronic lymphoid leukaemia lymphocytes in culture, 3H-thymidine incorporation (CPM) with or without PHA stimulation
Type: cell-based
Experimental: The sensibility of human leukaemia cells to acetoxymethyl 3β-(methoxypolyethylene glycol acetoxy)-lup-20(29)-en-28-oate 4c-β at different concentrations (from 0.04 mM up to 1 mM) was tested in vitro. The lymphocytes of three patients (4266866, 4266860 and 4262311) suffering from chronic lymphoid leukaemia were used in cell cultures.
On day 0: A multi-well plate was prepared per patient, each comprising 10^6 cells/well in a total volume of 1 ml. Cells, RPMI (cell growth medium) and test compound 4c-β were added in accordance with table 2 (all experiments were duplicated). The test compound dissolved in RPMI was added in the following amounts: 10 μl≡0.04 mM, 50 μl≡0.2 mM, 100 μl≡0.4 mM, 150 μl≡0.6 mM, 200 μl≡0.8 mM, and 250 μl≡1 mM.
On day 2: • 500 μl was taken from each well of plate 1 and put into a well of plate 2. • Plate 2: cells were tritiated with ^3H-thymidine for 4 hours; after the 4 hours incubation in the presence of radioactivity, plate 2 was harvested and radioactivity was counted. • Plate 1: 50 μl PHA was added to the 500 μl of each well of plate 1.
On day 5: • Plate 1: cells and PHA were tritiated with ^3H-thymidine for 4 hours; after the 4 hours incubation in the presence of radioactivity, plate 1 was harvested and radioactivity was counted.
PHA (a lectin named phytoagglutine, which is a mitogen activating living cells) was added to the cells in culture. PHA acts as a stimulating agent. All human lymphocytes have receptors for this type of lectin and all human lymphocytes undergo lymphoblastic transformation when stimulated by PHA. By adding PHA to the cells in culture, it was possible to measure whether the cells were still alive.
CPM stands for counts per minute and measures the disintegration of the tritiated ^3H-thymidine. Thus, CPM reflects the radioactivity of the cells' DNA having incorporated the tritiated ^3H-thymidine after mitosis. […]
On day 0: A multi-well plate was prepared, comprising 10^6 cells/well in a total volume of 1.5 ml. […] The test compound dissolved in RPMI was added in the following amounts: 125 μl≡0.5 mM and 250 μl≡1 mM. […]
The sensibility of human leukaemia cells to acetoxymethyl 3β-(methoxypolyethylene glycol acetoxy)-lupan-28-oate 8c-β at different concentrations (0.5 mM and 1 mM) was tested in vitro. The lymphocytes of one patient (4316182) suffering from chronic lymphoid leukaemia were used in cell cultures. […]
On day 2: • Plate 1: cells were tritiated with ^3H-thymidine for 4 hours; after the 4 hours incubation in the presence of radioactivity, plate 1 was harvested and radioactivity was counted. • Plate 2: cells were tritiated with ^3H-thymidine for 4 hours; after the 4 hours incubation in the presence of radioactivity, plate 2 was harvested and radioactivity was counted.

[1] = 0.5 mM and 1 mM, one patient, FIG. 4

Row | Substance | activation of cells by PHA after contact with test compound (plate 1, PHA added day 2, counted day 5, 0.04 mM up to 1 mM, three patients, FIGS. 2a-c) | time within which cells contacted with test compound were killed (CPM after 3H-thymidine) (plate 2, 0.04 mM up to 1 mM, three patients, FIGS. 2a-c) [h] | killing of cells by test compound [1] | reactivation of cells by addition of PHA after contact with test compound [1]
1 | Acetoxymethyl 3β-(methoxypolyethylene glycol acetoxy)-lup-20(29)-en-28-oate [compound 4c-β] | could no longer be activated by PHA | ≤ 48 |  | 
2 | Acetoxymethyl 3β-(methoxypolyethylene glycol acetoxy)-lupan-28-oate [compound 8c-β] |  |  | killed the cells | unable to be reactivated by the addition of PHA
